In data set [1] the test system is RAW macrophages infected with Leishmania infantum. The experiment in a line: Infectivity test / infection rate in RAW macrophages. In kind it is cell-based. The following applies: three concentrations (below IC50, IC50, above IC50), 24 h treatment. Here is the method:
For the infection of RAW macrophages adhered to the plates, we used parasites in the promastigote form of Leishmania infantum, in the stationary phase, in a ratio of 10:1 (promastigotes/macrophages).
Macrophages were plated in the amount of 5 × 10^4 cells per well, in 96-well plates, which were kept in a CO2 oven at 37 °C for 24 h. The parasites were plated at a concentration of 10:1. The plates were kept in a CO2 oven for 12 h until the parasites infected the cells. […] Plates were fixed with paraformol for further evaluation. Plaques were evaluated by counting parasites within 200 cells under the EVOS Cell Imaging System (Thermo Scientific, Waltham, MA, USA) microscope by staining with propidium iodide.
In view of the data obtained, the six most promising compounds (HL1^Ch, HL2^Ph, Ag3, Ag4, Ag6 and Au2) were selected for carrying out the infection rate test against the L. infantum parasite. […] This test was performed at four stages. The first step determined the percentage of the amount in 200 infected macrophages per parasite, the second determined the percentage of parasites that infects 100 cells/macrophages, the third determined the average percentage of parasites that infects 200 cells/macrophages and, finally, the fourth step indicated the infection rate, that is, the result of the amount of Leishmania per macrophage (obtained from the third step) multiplied by the percentage of infected macrophages. Figure 5 presents the graphs of the infection rates, while the other graphs can be found in Figure S7.4.

A further data set deals with Vero cells. The experiment in a line: Cytotoxicity assay on Vero cells (resazurin). In kind it is cell-based, African green monkey. Conditions: 24 h treatment. As to the method: (§1) For the experiment, Vero cells (ATCC CRL-1587) were used in Roswell Parl Memorial Institute (RPMI) medium with 10% fetal bovine serum (FBS) (RPMI 10%) and 20 μg/mL of Gentamicin. They were cultivated in culture bottles of […] and kept in an oven at 37 °C with 5% carbon dioxide (CO2). When picked or used on the day of the experiment, the cells were detached from the wall of the bottles with saline and 1X trypsin/EDTA. To find out how many cells there were in the bottle, it was diluted in Turkey liquid and then we proceeded with the counting in the Neubauer Chamber to calculate the desired concentrations. The Vero cells were plated at […] cells per well, in 96-well plates, and kept in an incubator with 5% CO2 at 37 °C for 24 h. Then, the compounds were added in triplicate, starting at a concentration of 500 µM, with serial dilution being performed up to a concentration of 3.9 µM [54]. The treatment was carried out for 24 h, and, after adding 5 µL of resazurin, the fluorescence was read using a spectrofluorometer (EnSpire Perkin-Elmer, Waltham, MA, USA).
In general terms: Resazurin is reduced to fluorescent resorufin, in cell work by metabolically active cells.

The next data set has as its system Leishmania infantum. The experiment in a line: Leishmanicidal activity against promastigotes (resazurin). In kind it is cell-based. The following applies: for IC50: promastigote form, 24 h treatment, resazurin, read-out: IC50 L. infantum; for SI L. infantum: selectivity index = CC50 (Vero) / IC50 (L. infantum promastigotes). As to the method: (§2) The Leishmania infantum and Leishmania braziliensis strains were maintained in Schneider medium supplemented with 20% of SFB (Schneider 20%), cultivated in […] bottles and stored at 28 °C in a BOD oven. For the assays, parasites at the 5th day stationary growth phase were used.
(§3) The promastigotes metacyclic form of Leishmania infantum and Leishmania braziliensis were first filtered with an insulin syringe to break up rosettes and, then, were isolated from the culture in the stationary phase by centrifugation of 400× g for 4 min at a temperature of 4 °C [53]. The supernatant was subjected to a new centrifugation, heavier, of 2000× g for 30 min, also at 4 °C. The supernatant was discarded and the cell pallet formed from this centrifugation was resuspended in 10 mL of 10% Schneider medium. The process ensured the removal of cellular debris and dead parasites, as well as possible crystals from the culture medium, so that the quality of the experiment was guaranteed. Then, the promastigotes were diluted to 1:10 in paraformaldehyde (PFA) for counting in a Neubauer Chamber, with the concentrations adjusted for each experiment.
(§4) An amount of 1 × 10^7 parasites per well was used. The parasites were plated in 96-well plates. Then, the compounds were added in triplicate, starting at a concentration of 500 µM, with serial dilutions being performed up to a concentration of 3.9 µM [53]. The treatment was carried out for 24 h and, after adding 5 µL of resazurin, the fluorescence was read using a Enspire model spectrofluorometer (Perkin-Elmer, Waltham, MA, USA).

A further data set concerns Leishmania braziliensis. The description is as above. The following applies: for IC50: promastigote form, 24 h treatment, resazurin, read-out: IC50 L. braziliensis; for SI L. braziliensis: selectivity index = CC50 (Vero) / IC50 (L. braziliensis promastigotes). In kind it is cell-based. Here is the method: as §2, §3, §4
Data set [2] is described as follows: Solubility in buffer for the fluorescence experiments. The following applies: Tris-HCl buffer. In kind it is physicochemical. As to the method: The compounds were solubilized in DMSO and then we made successive dilutions in a Tris-HCl 25 mmol L^−1 buffer, pH 8.0, containing 100 mmol L^−1 of NaCl. For all experiments, the final concentration of DMSO was kept constant and equal to 2.5%. Solutions with increasing concentrations of ligand and constant concentration of LbOYE (1 µmol L^−1) were prepared, which were kept at 25 °C for a period of 1h before acquisition of fluorescence emission spectra.
After the synthesis and structural characterization of the compounds, studies of interaction of the compounds and the recombinant LbOYE were carried out by fluorescence measurements.

Data set [3] is described as follows: Cytotoxicity assay on Vero cells (resazurin). The following applies: African green monkey, Vero cells (ATCC CRL-1587), 24 h treatment. In kind it is cell-based, African green monkey. As to the method:
as §1

Each structure is given as a SMILES string. Entries after “also recorded” stand apart in the source; their conditions may differ. Read-outs that look alike come from different tables or passages of the source.

For the compound `Cc1ccc(S(=O)(=O)NNC(Nc2ccccc2)=[S][Au+][S]=C(NNS(=O)(=O)c2ccc(C)cc2)Nc2ccccc2)cc1.[Cl-]` [Au2, [Au(HL2^Ph)2]Cl], the “Infection rate of L. infantum in macrophages, in words” value (from here on “Infection rate of L. infantum”) in data set [1] is “able to inhibit the parasite infection inside the cells even at lower concentrations than that determined by their IC50 values; also recorded: able to inhibit the parasite infection even at lower concentrations than that of their IC50 values”. Also, the CC50 (in general, the concentration at which the toxic effect on the cells reaches its halfway point) with Vero cells amounted to 296 µM. In addition, in the data set on Leishmania infantum, the half-inhibitory concentration (IC50) (as a rule, the concentration at which inhibition is half-maximal) came out at 41.69 ± 0.21 µM and the “SI L. infantum” value is listed as 7.09. In addition, in the data set with Leishmania braziliensis, the IC50 was 143.2 ± 0.085 µM and the “SI L. braziliensis” value came out at 2.06.

In the data set on Vero cells, `Cc1ccc(S(=O)(=O)NNC(Nc2ccc([N+](=O)[O-])cc2)=[S][Ag+][S]=C(NNS(=O)(=O)c2ccc(C)cc2)Nc2ccc([N+](=O)[O-])cc2)cc1.O=[N+]([O-])[O-]` [Ag5, [Ag(HL5^NO2Ph)2]NO3] gave a 50% cytotoxic concentration (CC50) of 493 µM. Further, the concentration for half-maximal inhibition (IC50) came out at 78.79 ± 0.091 µM in the data set on Leishmania infantum and 90.73 ± 0.236 µM in the data set with Leishmania braziliensis. Besides, in the data set on Leishmania braziliensis, the “SI L. braziliensis” value is 5.44.

On to `C=CCNC(NNS(=O)(=O)c1ccc(C)cc1)=[S][Ag+][S]=C(NCC=C)NNS(=O)(=O)c1ccc(C)cc1.O=[N+]([O-])[O-]` [Ag6, [Ag(HL6^Al)2]NO3], for which, in data set [1], the “Infection rate of L. infantum” value is listed as “able to inhibit the parasite infection inside the cells even at lower concentrations than that determined by their IC50 values; also recorded: able to inhibit the parasite infection even at lower concentrations than that of their IC50 values”. The “Solubility in buffer at the concentrations for the fluorescence experiments, in words” value (“Solubility in buffer” below) in data set [2] is given as “not soluble in the buffer used for the experiment”. The compound also displayed a 50% cytotoxic concentration (CC50) in the data set on Vero cells greater than 500 µM. In the data set with Leishmania infantum, the IC50 was 78.59 ± 0.605 µM and the “SI L. infantum” value is given as greater than 6.36. In addition, in the data set on Leishmania braziliensis, the IC50 amounted to 305.2 ± 0.032 µM and the “SI L. braziliensis” value is given as greater than 1.64.

In the case of `Cc1ccc(S(=O)(=O)NNC(Nc2ccc(Cl)cc2)=[S][Ag+][S]=C(NNS(=O)(=O)c2ccc(C)cc2)Nc2ccc(Cl)cc2)cc1.O=[N+]([O-])[O-]` [Ag4, [Ag(HL4^ClPh)2]NO3], the “Infection rate of L. infantum” value in data set [1] is on record as “did not show a promising infection rate”. In the data set on Vero cells, the CC50 is greater than 500 µM. The half-maximal inhibitory concentration (IC50) in the data set with Leishmania infantum worked out at 72.17 ± 0.036 µM; in the data set on Leishmania braziliensis it was 84.62 ± 0.116 µM. In addition, the “SI L. braziliensis” value with Leishmania braziliensis is given as greater than 5.91.

`Cc1ccc(S(=O)(=O)NNC(Nc2ccc(F)cc2)=[S][Au+][S]=C(NNS(=O)(=O)c2ccc(C)cc2)Nc2ccc(F)cc2)cc1.[Cl-]` [Au3, [Au(HL3^FPh)2]Cl] gave a CC50 with Vero cells of 28.8 µM. Also, in the data set on Leishmania infantum, the IC50 was determined as 173.9 ± 0.087 µM and the “SI L. infantum” value is 0.17. Further, in the data set with Leishmania braziliensis, the IC50 amounted to 194.9 ± 0.063 µM and the “SI L. braziliensis” value was determined as 0.15.

As to `Cc1ccc(S(=O)(=O)NNC(NC2CCCCC2)=[S][Ag+][S]=C(NNS(=O)(=O)c2ccc(C)cc2)NC2CCCCC2)cc1.O=[N+]([O-])[O-]` [Ag1, [Ag(HL1^Ch)2]NO3], in the data set on Vero cells, the CC50 came out at 7.4 µM. Moreover, in the data set with Leishmania infantum, the 50% inhibitory concentration (IC50) stood at 57.42 ± 0.028 µM and the “SI L. infantum” value is given as 0.129. Further, in the data set on Leishmania braziliensis, the half-inhibitory concentration (IC50) stood at 50.15 ± 0.02 µM and the “SI L. braziliensis” value was 0.15.

Take `Cc1ccc(S(=O)(=O)NNC(Nc2ccccc2)=[S][Ag+][S]=C(NNS(=O)(=O)c2ccc(C)cc2)Nc2ccccc2)cc1.O=[N+]([O-])[O-]` [Ag2, [Ag(HL2^Ph)2]NO3]: the midpoint of cytotoxicity in the data set on Vero cells, the CC50, lay at 92.1 µM. Further, in the data set with Leishmania infantum, the IC50 turned out to be 280.5 ± 0.167 µM and the “SI L. infantum” value was found to be 0.33. In addition, in the data set on Leishmania braziliensis, the half-inhibitory concentration (IC50) amounted to 183.7 ± 0.027 µM and the “SI L. braziliensis” value turned out to be 0.50.

On to `C=CCNC(NNS(=O)(=O)c1ccc(C)cc1)=[S][Au+][S]=C(NCC=C)NNS(=O)(=O)c1ccc(C)cc1.[Cl-]` [Au6, [Au(HL6^Al)2]Cl], for which the “Solubility in buffer” value in data set [2] is “not soluble in the buffer used for the experiment”. Also, the CC50 in the data set on Vero cells worked out at 77.5 µM. Also, in the data set with Leishmania infantum, the IC50 was determined as 62.54 ± 0.151 µM and the “SI L. infantum” value was determined as 1.24. In addition, in the data set with Leishmania braziliensis, the half-inhibitory concentration (IC50) was determined as 5554 ± 1.37 µM and the “SI L. braziliensis” value is reported as 0.01.

`C=CCNC(=S)NNS(=O)(=O)c1ccc(C)cc1` [HL6^Al, N-allyl-2-tosylhydrazinocarbothioamide]: the “Solubility in buffer” value in data set [2] is recorded as “not soluble in the buffer used for the experiment”. In data set [3], this compound came in with a half-maximal cytotoxic concentration (CC50) at 24 h of 188 µM. Also, the 50% inhibitory concentration (IC50) in the data set on Leishmania infantum (Leishmania infantum) stood at 812.8 ± 0.515 µM; in the data set on Leishmania braziliensis (Leishmania braziliensis) it was 313.5 ± 0.063 µM. In the data set with Leishmania infantum, the “SI L. infantum” value is 0.23. For the same compound, the “SI L. braziliensis” value with Leishmania braziliensis worked out at 0.60.

The compound `Cc1ccc(S(=O)(=O)NNC(=S)Nc2ccc(Cl)cc2)cc1` [HL4^ClPh, N-(4-chlorophenyl)-2-tosylhydrazinocarbothioamide] showed a CC50 at 24 h in data set [3] of 16.8 µM. Moreover, the concentration for half-maximal inhibition (IC50) worked out at 108.4 ± 0.104 µM in the data set with Leishmania infantum (Leishmania infantum) and 133.8 ± 0.036 µM in the data set with Leishmania braziliensis (Leishmania braziliensis). In addition, the “SI L. infantum” value in the data set with Leishmania infantum came to 0.16. Also, the “SI L. braziliensis” value in the data set with Leishmania braziliensis is on record as 0.13.

As to `Cc1ccc(S(=O)(=O)NNC(Nc2ccc([N+](=O)[O-])cc2)=[S][Au+][S]=C(NNS(=O)(=O)c2ccc(C)cc2)Nc2ccc([N+](=O)[O-])cc2)cc1.[Cl-]` [Au5, [Au(HL5^NO2Ph)2]Cl], in the data set on Vero cells, half-maximal cytotoxicity (CC50) was put at 58.6 µM. In the data set with Leishmania infantum, the IC50 came out at 295.5 ± 0.259 µM and the “SI L. infantum” value was determined as 0.198. Also, in the data set with Leishmania braziliensis, the half-maximal inhibitory concentration (IC50) is 284 ± 0.259 µM and the “SI L. braziliensis” value is 0.21.

(Values after PMC11053681, “Gold(I) and Silver(I) Complexes Containing Hybrid Sulfonamide/Thiourea Ligands as Potential Leishmanicidal Agents” (Pharmaceutics, 2024).)
